Results as given in ChEMBL document CHEMBL1139391, “Synthesis and structure-activity relationship of benzetimide derivatives as human CXCR3 antagonists” (Bioorg Med Chem Lett, 2008).

What was measured:
[1] = molecular target: T1, C-X-C chemokine receptor type 3 (Homo sapiens, UniProt P49682); experiment: Antagonist activity at human CXCR3 expressed in CHO cells assessed as inhibition of ITAC-stimulated [35S]GTPgammaS binding pretreated 30 mins before ITAC challenge; format: functional, cell-based
T1 sequence (P49682 whole entry): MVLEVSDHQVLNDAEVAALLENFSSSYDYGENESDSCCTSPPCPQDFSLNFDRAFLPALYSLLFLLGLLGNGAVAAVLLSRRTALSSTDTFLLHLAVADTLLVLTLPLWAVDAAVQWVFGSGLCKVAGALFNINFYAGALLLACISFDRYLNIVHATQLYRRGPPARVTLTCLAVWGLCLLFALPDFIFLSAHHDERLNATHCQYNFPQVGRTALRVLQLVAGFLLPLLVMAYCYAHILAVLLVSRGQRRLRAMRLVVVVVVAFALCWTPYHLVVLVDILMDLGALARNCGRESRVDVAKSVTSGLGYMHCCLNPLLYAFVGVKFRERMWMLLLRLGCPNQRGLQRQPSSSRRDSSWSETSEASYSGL

[2] = molecular target: T2, Muscarinic acetylcholine receptor M1 (Homo sapiens, UniProt P11229); experiment: Binding affinity to human muscarinic M1 receptor
T2 sequence (P11229 whole entry): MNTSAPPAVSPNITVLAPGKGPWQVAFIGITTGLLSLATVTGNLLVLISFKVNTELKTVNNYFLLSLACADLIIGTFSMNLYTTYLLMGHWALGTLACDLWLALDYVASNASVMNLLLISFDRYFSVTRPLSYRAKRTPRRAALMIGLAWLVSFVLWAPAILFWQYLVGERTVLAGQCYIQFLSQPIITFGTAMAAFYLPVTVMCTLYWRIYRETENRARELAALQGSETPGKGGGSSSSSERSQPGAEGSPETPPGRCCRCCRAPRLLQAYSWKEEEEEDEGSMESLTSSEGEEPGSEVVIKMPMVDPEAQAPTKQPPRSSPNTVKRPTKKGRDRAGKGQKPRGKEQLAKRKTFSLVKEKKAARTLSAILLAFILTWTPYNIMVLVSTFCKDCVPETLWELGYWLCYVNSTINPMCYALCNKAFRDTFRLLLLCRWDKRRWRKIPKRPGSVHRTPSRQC

[3] = molecular target: Muscarinic acetylcholine receptor M3 (Homo sapiens, UniProt P20309); experiment: Binding affinity to human muscarinic M3 receptor
[4] = molecular target: T3, Muscarinic acetylcholine receptor M2 (Homo sapiens, UniProt P08172); experiment: Binding affinity to human muscarinic M2 receptor
T3 sequence (P08172 whole entry): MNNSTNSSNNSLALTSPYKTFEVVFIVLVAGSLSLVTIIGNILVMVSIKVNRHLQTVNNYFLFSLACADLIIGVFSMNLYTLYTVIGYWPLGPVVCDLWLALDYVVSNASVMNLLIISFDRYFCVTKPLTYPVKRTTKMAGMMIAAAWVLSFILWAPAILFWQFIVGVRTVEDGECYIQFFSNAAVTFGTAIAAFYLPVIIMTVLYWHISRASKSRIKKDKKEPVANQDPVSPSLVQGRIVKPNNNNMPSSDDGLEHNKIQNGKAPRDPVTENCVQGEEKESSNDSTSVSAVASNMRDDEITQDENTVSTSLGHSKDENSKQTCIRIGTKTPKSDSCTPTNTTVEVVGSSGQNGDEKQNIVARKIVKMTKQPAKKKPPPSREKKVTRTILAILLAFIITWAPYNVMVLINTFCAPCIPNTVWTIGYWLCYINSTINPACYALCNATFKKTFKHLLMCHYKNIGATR

Sequence of Muscarinic acetylcholine receptor M3 (P20309 whole entry): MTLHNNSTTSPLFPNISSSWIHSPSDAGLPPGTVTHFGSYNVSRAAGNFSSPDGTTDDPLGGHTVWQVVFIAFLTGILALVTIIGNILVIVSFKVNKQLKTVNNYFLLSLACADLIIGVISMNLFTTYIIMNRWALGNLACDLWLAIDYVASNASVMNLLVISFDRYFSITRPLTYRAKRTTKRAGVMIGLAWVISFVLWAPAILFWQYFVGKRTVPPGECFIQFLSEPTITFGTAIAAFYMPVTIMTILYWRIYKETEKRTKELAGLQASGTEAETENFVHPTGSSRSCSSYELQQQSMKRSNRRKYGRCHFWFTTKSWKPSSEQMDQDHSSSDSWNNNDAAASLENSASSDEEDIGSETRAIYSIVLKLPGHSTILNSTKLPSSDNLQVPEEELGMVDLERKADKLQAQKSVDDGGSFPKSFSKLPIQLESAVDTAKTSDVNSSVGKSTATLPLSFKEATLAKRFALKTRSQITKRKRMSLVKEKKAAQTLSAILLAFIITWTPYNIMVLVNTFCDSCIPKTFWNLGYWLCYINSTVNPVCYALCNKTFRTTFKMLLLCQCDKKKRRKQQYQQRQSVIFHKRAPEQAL

Row | SMILES | IC50 [1] [nM] | IC50 [2] [nM] | IC50 [3] [nM] | IC50 [4] [nM] | IC50 ([1]; cho) [nM]
1 | O=C1CCC(c2ccccc2)(C2CCN(Cc3ccc(F)cc3)CC2)C(=O)N1 (racemic) | 4570 | – | – | – | –
2 | O=C1CCC(c2ccccc2)(C2CCN(Cc3ccc(Br)cc3)CC2)C(=O)N1 (single isomer, unassigned; (+)) | 1330 | < 1 | < 1 | < 1 | –
3 | CCC(=O)N1CCCC(c2ccccc2)(C2CCN(Cc3ccc(Br)cc3)CC2)C1 (racemic) | 290 | – | – | – | –
4 | O=C1CCC(c2cccc(Cl)c2)(C2CCN(Cc3ccc(Br)cc3)CC2)C(=O)N1 (racemic) | 1450 | – | – | – | –
5 | COc1ccc(S(=O)(=O)O)cc1C1(C2CCN(Cc3ccc(Br)cc3)CC2)CCC(=O)NC1=O (racemic) | 170 | – | – | – | –
6 | O=C1CCC(c2ccccc2)(C2CCN(Cc3ccc(Br)cc3)CC2)C(=O)N1 (racemic) | 780 | – | – | – | –
7 | O=C1CCC(c2ccc(F)cc2F)(C2CCN(Cc3ccc(Br)cc3)CC2)C(=O)N1 (single isomer, unassigned; (+)) | 330 | < 1 | < 1 | < 1 | –
8 | CCCN1C(=O)CCC(c2ccccc2)(C2CCN(Cc3ccc(Br)cc3)CC2)C1=O (racemic) | 5010 | – | – | – | –
9 | O=C1CCC(c2ccccc2)(C2CCN(Cc3ccccc3)CC2)C(=O)N1 (single isomer, unassigned; (+)) [BENZETIMIDE] | – | < 1 | < 1 | < 1 | > 10000
10 | CC(=O)N1CCCC(c2ccccc2)(C2CCN(Cc3ccc(Br)cc3)CC2)C1 (racemic) | 140 | – | – | – | –
11 | Cc1ccc(CN2CCC(C3(c4ccccc4)CCC(=O)NC3=O)CC2)cc1 (racemic) [MELETIMIDE] | 2400 | – | – | – | –
12 | O=C(Nc1ccccc1)N1CCCC(c2ccccc2)(C2CCN(Cc3ccc(Br)cc3)CC2)C1 (single isomer, unassigned; (-)) | 30 | > 10000 | > 10000 | > 10000 | –
13 | O=C1CCC(c2ccc(F)cc2F)(C2CCN(Cc3ccc(Br)cc3)CC2)C(=O)N1 (racemic) | 120 | – | – | – | –
14 | O=C(C1CC1)N1CCCC(c2ccccc2)(C2CCN(Cc3ccc(Br)cc3)CC2)C1 (racemic) | 180 | – | – | – | –
15 | CCOC(=O)N1CCCC(c2ccccc2)(C2CCN(Cc3ccc(Br)cc3)CC2)C1 (racemic) | 320 | – | – | – | –
16 | O=C(N1CCCC(c2ccccc2)(C2CCN(Cc3ccc(Br)cc3)CC2)C1)C(F)(F)F (racemic) | 690 | – | – | – | –
17 | O=C1CCC(c2ccccc2)(C2CCN(Cc3ccc(Cl)cc3)CC2)C(=O)N1 (racemic) | 830 | – | – | – | –
18 | O=C1CCC(c2ccccc2)(C2CCN(Cc3ccc(Cl)cc3Cl)CC2)C(=O)N1 (racemic) | 3160 | – | – | – | –
19 | O=C(Nc1ccccc1)N1CCCC(c2ccccc2)(C2CCN(Cc3ccc(Br)cc3)CC2)C1 (racemic) | 60 | – | – | – | –
20 | O=C1CCC(c2ccccc2)(C2CCN(Cc3ccc(Cl)c(C(F)(F)F)c3)CC2)C(=O)N1 (racemic) | 2510 | – | – | – | –

Row | SMILES | IC50 [1] [nM] | IC50 [2] [nM] | IC50 [3] [nM] | IC50 [4] [nM] | IC50 ([1]; cho) [nM]
21 | CN1CCN(C(=O)c2cccc(C3(C4CCN(Cc5ccc(Br)cc5)CC4)CCC(=O)NC3=O)c2)CC1 (racemic) | 1260 | – | – | – | –
22 | CC(=O)N1CCCC(c2ccccc2)(C2CCN(Cc3ccc(Br)cc3)CC2)C1 (single isomer, unassigned; (+)) | 2310 | > 10000 | > 10000 | > 10000 | –
23 | NC(=O)N1CCCC(c2ccccc2)(C2CCN(Cc3ccc(Br)cc3)CC2)C1 (racemic) | 250 | – | – | – | –
24 | NC(=O)CN1CCCC(c2ccccc2)(C2CCN(Cc3ccc(Br)cc3)CC2)C1 (single isomer, unassigned; (-)) | 810 | 5000 | 1100 | 2000 | –
25 | O=C(Nc1ccccc1)N1CCCC(c2ccccc2)(C2CCN(Cc3ccc(Br)cc3)CC2)C1 (single isomer, unassigned; (+)) | 6310 | 8900 | > 10000 | > 10000 | –
26 | O=C1CCC(c2ccccc2)(C2CCN(Cc3ccccc3)CC2)C(=O)N1 (stereo in doubt; (-)-3a) [BENZETIMIDE] | – | > 10000 | > 10000 | > 10000 | > 10000
27 | NS(=O)(=O)N1CCCC(c2ccccc2)(C2CCN(Cc3ccc(Br)cc3)CC2)C1 (racemic) | 210 | – | – | – | –
28 | COc1cccc(C2(C3CCN(Cc4ccc(Br)cc4)CC3)CCC(=O)NC2=O)c1 (racemic) | 1550 | – | – | – | –
29 | O=CN1CCCC(c2ccccc2)(C2CCN(Cc3ccc(Br)cc3)CC2)C1 (racemic) | 150 | – | – | – | –
30 | Brc1ccc(CN2CCC(C3(c4ccccc4)CCCNC3)CC2)cc1 (racemic) | > 10000 | – | – | – | –
31 | CC(=O)N1CCCC(c2ccccc2)(C2CCN(Cc3ccc(Br)cc3)CC2)C1 (single isomer, unassigned; (-)) | 110 | 10000 | 3000 | 10000 | –
32 | NC(=O)CN1CCCC(c2ccccc2)(C2CCN(Cc3ccc(Br)cc3)CC2)C1 (stereo in doubt; (+)-47b) | 60 | > 10000 | > 10000 | > 10000 | –
33 | O=C1CCC(c2ccc(F)cc2F)(C2CCN(Cc3ccc(Br)cc3)CC2)C(=O)N1 (single isomer, unassigned; (-)) | 60 | > 10000 | > 10000 | > 10000 | –
34 | Nc1cccc(C2(C3CCN(Cc4ccc(Br)cc4)CC3)CCC(=O)NC2=O)c1 (racemic) | 320 | – | – | – | –
35 | COc1ccc(CN2CCC(C3(c4ccccc4)CCC(=O)NC3=O)CC2)cc1 (racemic) | 4270 | – | – | – | –
36 | NC(=O)CN1CCCC(c2ccccc2)(C2CCN(Cc3ccc(Br)cc3)CC2)C1 (racemic) | 80 | – | – | – | –
37 | O=C1CCC(c2ccc(F)cc2)(C2CCN(Cc3ccc(Br)cc3)CC2)C(=O)N1 (racemic) | 1260 | – | – | – | –
38 | COc1ccc(C2(C3CCN(Cc4ccc(Br)cc4)CC3)CCC(=O)NC2=O)cc1 (racemic) | 3630 | – | – | – | –
39 | O=C1CCC(c2ccccc2)(C2CCN(Cc3ccc(Cl)c(F)c3)CC2)C(=O)N1 (single isomer, unassigned; (-)) | 340 | – | – | – | –
40 | O=C1CCC(c2ccccc2)(C2CCN(Cc3ccccc3)CC2)C(=O)N1 (racemic) [BENZETIMIDE] | > 10000 | – | – | – | –
